Measurements reported in patent publication US20030216479A1, “Novel compositions comprising 2,2-Bis (4-hydroxy-3-methylphenyl) heptane and uses thereof” (priority 2001, published 2003).
Converted amounts (≈) assume the structure as drawn.

Legend:
M. smegmatis = test: MIC antibacterial activity; type: cell-based; conditions: Mycolicibacterium smegmatis
H. influenzae = test: MIC antibacterial activity; type: cell-based; conditions: Haemophilus influenzae
S. epidermidis = test: MIC antibacterial activity; type: cell-based; conditions: Staphylococcus epidermidis
C. diphtheriae = test: MIC antibacterial activity; type: cell-based; conditions: Corynebacterium diphtheriae
H. pylori = test: MIC antibacterial activity; type: cell-based; conditions: Helicobacter pylori
[1] = test system: methicillin-sensitive Staphylococcus aureus; test: Wound healing model (FIG. 1); type: in vivo; conditions: methicillin-susceptible Staphylococcus aureus; mice; topical twice daily from 24 h; sampled 72 h post-infection
Method: (§1) FIG. 1. Efficacy of a composition comprising 2,2-Bis(4-hydroxy-3-methylphenyl)heptane in the wound healing model. A defined inoculum of approximately 10^5 CFU of methicillin-sensitive Staphylococcus aureus in 20 μl culture medium was pipetted into a wound approximately 1 cm^2 created by removal of the epidermis from the shaved backs of mice. After 24 hours, the composition comprising 2,2-Bis(4-hydroxy-3-methylphenyl)heptane, placebo control or positive control ointment was applied twice daily. Approximately, seventy two hours post-infection, the wound was sampled and appropriate dilutions plated on nutritive agars for determination of microbial burden. The number of colony forming units (CFU) of methicillin-sensitive Staphylococcus aureus per wound is shown.
(§2) The wound healing model, using methods generally known by those skilled in the art, is used to measure the efficacy of topically applied compounds in suitable vehicles against any bacteria, for example, Staphylococcus epidermis, Staphylococcus aureus, Streptococcus pyrogenes, Haemophilus influenzae, or mixtures thereof. By removing several epidermal layers by surgical procedure, a superficial wound of approximately 1 cm^2 was created. About 10 ^5 cfu/20 ul of culture medium of any bacteria, for example, S aureus, was applied to the wound. […]

[2] = test system: methicillin-resistant Staphylococcus aureus; test: Wound healing model (FIG. 2); type: in vivo; conditions: mice, topical twice daily from 24 h, sampled 72 h post-infection
Method: as §1, with “2.” for “1.”, “methicillin-resistant” for “methicillin-sensitive”
as §2

S. pneumoniae = test: MIC antibacterial activity; type: cell-based; conditions: Streptococcus pneumoniae
E. faecalis = test: MIC antibacterial activity; type: cell-based; conditions: Enterococcus faecalis
[3] = test system: Staphylococcus epidermidis; test: Wound healing model (FIG. 3); type: in vivo; conditions: mice, topical twice daily from 24 h, sampled 72 h post-infection
Method: as §1, with “3.” for “1.”, “epidermis” for “aureus”
as §2

M. catarrhalis = test: MIC antibacterial activity; type: cell-based; conditions: Moraxella catarrhalis
S. pyogenes = test: MIC antibacterial activity; type: cell-based; conditions: Streptococcus pyogenes

Question: Which MIC (M. smegmatis) does the source give for `CCCCCC(C)(c1ccc(O)c(C)c1)c1ccc(O)c(C)c1` [2,2-Bis(4-hydroxy-3-methylphenyl)heptane] here?
Answer: 2 µg/mL (≈ 6.4 µM)

Question: What about the MIC (H. influenzae) of the same compound?
Answer: 6 µg/mL (≈ 19.2 µM)

Question: And the MIC (S. epidermidis)?
Answer: 2 µg/mL (≈ 6.4 µM)

Question: And the MIC (C. diphtheriae)?
Answer: 2 µg/mL (≈ 6.4 µM)

Question: And the MIC (H. pylori)?
Answer: 16 µg/mL (≈ 51.2 µM)

Question: And the “reducing the population levels of pathogenic bacteria (CFU per wound)” value (“reducing the population levels … (CFU per wound)” for short) [1]?
Answer: efficacious

Question: And the “reducing the population levels … (CFU per wound)” value [2]?
Answer: efficacious

Question: And the MIC (S. pneumoniae)?
Answer: 6 µg/mL (≈ 19.2 µM)

Question: And the MIC (E. faecalis)?
Answer: 2 µg/mL (≈ 6.4 µM)

Question: What about the “reducing the population levels … (CFU per wound)” value [3] of the same compound?
Answer: efficacious

Question: And the MIC (M. catarrhalis)?
Answer: 2 µg/mL (≈ 6.4 µM)

Question: What about the melting point of the same compound?
Answer: 99 to 101 °C

Question: What about the MIC (S. pyogenes) of the same compound?
Answer: 6 µg/mL (≈ 19.2 µM)
